Results on 79 molecules are retold here after the METLIN SMRT retention time set (Domingo-Almenara et al. 2019).

The series can be described thus: gradient 5% acetonitrile 3 min, to 50% in 2 min, to 85% in 15 min, held 3 min, 100 µL/min. Conditions: column: Zorbax Extend-C18 2.1 x 50 mm; eluents: water / acetonitrile, 0.1% formic acid. In a few lines:
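Standards, all pure, were combined into mixtures of ~100 molecules and run at 100 μL/min on a Zorbax Extend-C18 column (2.1 × 50 mm, 1.8 μm) with water and acetonitrile, each containing 0.1% formic acid. A coupled quadrupole time-of-flight mass spectrometer operated in positive and negative ionization mode. Retention time values come from computationally picked adduct peaks, each inspected manually.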
`CSc1ccccc1C(=O)N(CCc1ccccc1)Cc1ccccn1` returned an RP-LC retention time of 762 s.

The molecule `Cc1cccc(NC(=O)NC2CCN(c3ccc(F)cc3)C2=O)c1` (centres undefined) came in with an RP-LC retention time of 830 s.

For `COc1ccc(Nc2c(-c3ccc(C)cc3)nc3cnccn23)cc1`, the RP-LC retention time was 855 s.

On to `Cc1ccc(S(=O)(=O)CC(=O)Nc2nc(-c3ccc4c(c3)OCO4)cs2)cc1`, for which the RP-LC retention time is 924 s.

`COC(=O)c1cccc(NC(=O)N2C[C@@H]3C[C@H]2C[C@@H]3NC(=O)c2ccccc2)c1`: the RP-LC retention time was 736 s.

Regarding `C=CCN1CCN(c2ccc3nnc(CCc4nc(-c5ccc(OC)cc5)no4)n3n2)CC1`, the RP-LC retention time is 603 s.

`CCn1nccc1-c1cccc(-c2noc(-c3cc(Cl)ccc3F)n2)c1`: the RP-LC retention time was found to be 1300 s.

The molecule `O=C(c1ccc(-c2cncnc2)nc1)N1CCN(c2ccccc2F)CC1` registered an RP-LC retention time of 760 s.

Turning to `CCc1noc(-c2ccnc(-n3ncc(C(=O)NC4CCCC4)c3C)c2)n1`, the RP-LC retention time is 687 s.

`Cc1ccc2c(Nc3ccc(F)c(C)c3)c(-c3nc(C)no3)cnc2n1` gave an RP-LC retention time of 764 s.

With `CCOc1ccccc1NS(=O)(=O)c1ccc2c(c1)CCCC(=O)N2`, the RP-LC retention time turned out to be 783 s.

As for `CC(C)n1cnc2cc(CNC(=O)c3cc(F)ccc3F)ccc21`, the RP-LC retention time amounted to 610 s.

Consider `CN1CCN(c2ccc([N+](=O)[O-])c3no[n+]([O-])c23)CC1`, for which the RP-LC retention time came out at 631 s.

In the case of `Cc1cc2c(=O)n(CC(=O)Nc3ccc(F)c(C)c3)c3cccnc3n2n1`, the RP-LC retention time was 748 s.

In the case of `CC1=NS(=O)(=O)N(C)C=C1C(=O)OCc1nc(-c2ccc(C(F)(F)F)cc2)no1`, the RP-LC retention time stood at 1060 s.

Molecule `CCCn1ncc(N2CCC(C(=O)N3CCN(CC)CC3)CC2)cc1=O` registered an RP-LC retention time of 567 s.

Molecule `COc1cccc(NC(=O)C2CCN(S(C)(=O)=O)c3cc(Cl)ccc3O2)c1` (centres undefined) came in with an RP-LC retention time of 966 s.

`CCc1nc(-c2nnn(-c3ccc(C)cc3)c2C)no1` came in with an RP-LC retention time of 945 s.

Molecule `CC(C)N1C[C@H](O)C[C@H]1c1nnc2n1CCN(C(=O)c1ccc3ccccc3n1)C2` had an RP-LC retention time of 586 s.

`CCOc1ccc(Br)cc1CNc1ccc2[nH]c(=O)[nH]c2c1` gave an RP-LC retention time of 668 s.

In turn, `Cc1ccc2cc(CN3C[C@@H](CO)[C@H](c4ccccn4)C3)c(=O)[nH]c2c1` registered an RP-LC retention time of 585 s.

Consider `COc1ccc(Cl)cc1NC(=O)N1CCCC(c2nnc(-c3ccccc3F)s2)C1` (centres undefined), for which the RP-LC retention time is 1040 s.

For the molecule `Cc1nc(Nc2ccc(Br)cn2)sc1C(=O)NCCN1CCCC1`, the RP-LC retention time came out at 628 s.

Turning to `COc1ccccc1NC(=O)NCC(O)c1ccsc1` (centres undefined), the RP-LC retention time came out at 684 s.

With `Cc1cc(NC(=O)Cn2ccn3nc(-c4ccc(F)cc4)c(CO)c3c2=O)no1`, the RP-LC retention time is 727 s.

`CCOc1ccc(S(=O)(=O)[C@H]2CS(=O)(=O)C[C@@H]2N2CCC(C(=O)OC)CC2)cc1`: the RP-LC retention time was 858 s.

As to `N#Cc1cccc(C(=O)N2CCCC2c2nc(-c3cccc(C(F)(F)F)c3)no2)c1` (centres undefined), the RP-LC retention time turned out to be 1050 s.

On to `COCCOCc1nc(C2CCN(S(=O)(=O)c3cccc4nsnc34)C2)no1` (centres undefined), for which the RP-LC retention time amounted to 769 s.

`CN1C(=O)C2CCCCN2c2ccc(C(=O)NCCc3c[nH]c4ccc(Cl)cc34)cc21` (centres undefined) showed an RP-LC retention time of 921 s.

With `CCN1C(=O)c2cccnc2Sc2cc(C(=O)NCc3ccccc3)ccc21`, the RP-LC retention time is 780 s.

For the molecule `CC1=C(c2ccccc2)S(=O)(=O)N=C1N1CCCN(C(=O)c2ccccc2Cl)CC1`, the RP-LC retention time was determined as 811 s.

Molecule `O=C(Cn1c(=O)c2cccn2c2ccc(F)cc21)NCCN1CCOCC1` showed an RP-LC retention time of 592 s.

As to `Cc1ccccc1NS(=O)(=O)c1cc2c(s1)CCN(C(=O)C1CC1)C2`, the RP-LC retention time was 822 s.

On to `CC(C)C(=O)Nc1ccc(C(=O)NCCNS(=O)(=O)N(C)C)cc1`, for which the RP-LC retention time worked out at 631 s.

For the molecule `O=C(Nc1ccc(Br)cc1)N1CCCC1c1nc(-c2ccc(F)cc2F)no1` (centres undefined), the RP-LC retention time is 1050 s.

`COc1ccccc1NC(=O)C1CC(=O)N(CCc2c[nH]c3ccc(Cl)cc23)C1` (centres undefined) gave an RP-LC retention time of 829 s.

Take `CC(C)c1nnc2n1CCN(C(=O)c1nccc3ccccc13)C2`: the RP-LC retention time stood at 605 s.

`CCOC(=O)C1CCc2sc(NC(=O)CCc3csc4nc(C5CC5)cn34)nc21` (centres undefined): the RP-LC retention time amounted to 599 s.

Take `Cc1nc(C(=O)Nc2ccc(F)cc2Cl)c(C)o1`: the RP-LC retention time is 1040 s.

As to `COCc1cc2nn(CC(=O)NC3CCCC3)c(=O)n2c(-c2ccccc2)n1`, the RP-LC retention time worked out at 727 s.

As for `CC(C)c1nc2c(NC(=O)C3CC3)cccn2n1`, the RP-LC retention time is 733 s.

Take `Cc1ccc(-c2nnc(Cc3nc(-c4ccc(F)cc4)no3)o2)cc1C`: the RP-LC retention time stood at 1120 s.

In turn, `CNC(=O)C1CCCN(c2nc3ncn(CC(=O)NCc4ccccc4)c(=O)c3s2)C1` (centres undefined) registered an RP-LC retention time of 620 s.

`CC(=O)c1cccc(S(=O)(=O)Nc2ccc(CC(=O)N(C)C)cc2)c1` showed an RP-LC retention time of 651 s.

Regarding `Cc1cccc(N2CCN(c3cc(C(=O)O)c4cc(NS(C)(=O)=O)ccc4n3)CC2)c1C`, the RP-LC retention time is 715 s.

For `CC(Cc1ccco1)NC(=O)c1cc(-c2ccccn2)nc2ccccc12` (centres undefined), the RP-LC retention time came to 843 s.

Regarding `CN1CCN(C2CCN(C(=O)Nc3cc(Oc4ccc(NC(=O)C5(C(=O)Nc6ccc(F)cc6)CC5)c(F)c4)ccn3)CC2)CC1`, the RP-LC retention time stood at 659 s.

`Fc1ccccc1-c1ccc(CNCc2cccs2)o1`: the RP-LC retention time was 706 s.

Molecule `COc1ccc(NC(=O)Cn2c(=O)c3cc(C4CC4)nn3c3ncccc32)cc1Cl` returned an RP-LC retention time of 807 s.

In turn, `COc1cc(C2=NN(C(C)=O)C(c3cccnc3)O2)cc(OC)c1OC` (centres undefined) gave an RP-LC retention time of 701 s.

Regarding `Cc1cccc(N2CCN(C(=O)C3CCN(S(=O)(=O)c4cn(C)c(C)n4)CC3)CC2C)c1` (centres undefined), the RP-LC retention time turned out to be 667 s.

`COc1cc(NC(=O)C2CCCN(c3ncnc4c3nc3n4CCCCC3)C2)cc(OC)c1OC` (centres undefined) had an RP-LC retention time of 720 s.

In turn, `O=C(c1cnn2c(-c3ccc4c(c3)OCO4)ccnc12)N1CCN(Cc2ccc3c(c2)OCO3)CC1` returned an RP-LC retention time of 648 s.

`O=C(C1CC(=O)N(c2ccc(F)cc2)C1)N1CCN(CCn2cccn2)CC1` (centres undefined) showed an RP-LC retention time of 556 s.

Turning to `O=C(Cn1c(=O)cc(C(=O)N2CCc3ccccc3C2)c2ccccc21)Nc1ccc2c(c1)OCCO2`, the RP-LC retention time turned out to be 831 s.

With `Cc1sc(-c2cc(C(F)(F)F)on2)cc1S(=O)(=O)N1CCC2(CC1)OCCO2`, the RP-LC retention time worked out at 1120 s.

The molecule `Cc1ccc(NC(=O)C(C)Oc2cc(C(F)(F)F)c3c(C)nn(C)c3n2)c(C)c1` (centres undefined) gave an RP-LC retention time of 920 s.

`CC1CCCN(C(=O)C2c3ccccc3CC(=O)N2C)C1` (centres undefined) displayed an RP-LC retention time of 748 s.

For the molecule `CCN(CC)c1ccc(Nc2nc(-c3ccc(OC)cc3)cs2)cc1`, the RP-LC retention time was 742 s.

For `O=C(Nc1nc2c(F)cc(F)cc2s1)C1CCCN(S(=O)(=O)c2cccs2)C1` (centres undefined), the RP-LC retention time was found to be 767 s.

In the case of `CN(C(=O)Cn1ccn2nc(-c3ccc(F)cc3)c(CO)c2c1=O)c1ccccc1`, the RP-LC retention time is 924 s.

For `COc1ccccc1CNc1ncc(C(=O)O)c(C(C)C)n1`, the RP-LC retention time was 898 s.

For the molecule `CCOC(=O)C1=C(C)N(CC(=O)NC2CCCC2)c2ncnn2C1c1ccccc1` (centres undefined), the RP-LC retention time turned out to be 666 s.

Regarding `CN(C)CCn1c2c(c(SCC(=O)Nc3ccc(Br)cc3)nc1=O)CCC2`, the RP-LC retention time was found to be 655 s.

Take `COc1ccc(-c2cn3c(CC(=O)N4CCN(C5CCCCC5)CC4)csc3n2)cc1OC`: the RP-LC retention time turned out to be 594 s.

Take `O=C(O)c1cccc2c1CCN2C(=O)c1ccccc1`: the RP-LC retention time was determined as 731 s.

The molecule `Cc1nnc2ccc(-c3noc(Cc4cccc(Cl)c4)n3)cn12` displayed an RP-LC retention time of 871 s.

The molecule `Cc1ccc(N2CN(CC(=O)N3CCCc4ccccc43)S(=O)(=O)c3cccnc32)cc1` yielded an RP-LC retention time of 1030 s.

The molecule `Cc1nc(Nc2ccc(F)cn2)sc1C(=O)NCCC1=CCCCC1` returned an RP-LC retention time of 963 s.

As to `COc1cccc(CN2CCC3(CCC3O)CC2)c1OC` (centres undefined), the RP-LC retention time is 572 s.

`CCOc1ccc(NC(=O)C2CCN(c3c(C(=O)N(CC)CC)cnc4snc(C)c34)CC2)cc1` returned an RP-LC retention time of 882 s.

In turn, `O=C(Cn1nc(C(=O)N2CCCCC2)c2ccccc21)N1CCN(c2cccc(Cl)c2)CC1` gave an RP-LC retention time of 1010 s.

In turn, `CCCNc1nnc(-c2nnc(CC)o2)c2ccccc12` had an RP-LC retention time of 647 s.

The molecule `COc1ccc(NC(=O)c2nnc(CCCC(=O)NCCc3c[nH]c4ccc(Cl)cc34)s2)cc1` registered an RP-LC retention time of 892 s.

Consider `Cc1ccccc1NC(=O)Nc1ccc2nnc(C)n2c1`, for which the RP-LC retention time is 662 s.

The molecule `CC(=O)NC(CC(C)C)C(=O)NC(Cc1ccccc1)C(=O)CCl` (centres undefined) had an RP-LC retention time of 750 s.

`CCCN1C(=O)COc2ccc(-c3noc(-c4cccc5[nH]ccc45)n3)cc21` had an RP-LC retention time of 1070 s.

Molecule `O=C(NCCCn1c(-c2ccncc2)nc2cccnc21)Nc1cccc(F)c1` yielded an RP-LC retention time of 651 s.

In turn, `Cn1c(C(=O)N2CCCC(C(=O)N3CCN(c4ccccn4)CC3)C2)cc2sccc21` (centres undefined) returned an RP-LC retention time of 614 s.
